Data as given in US20260325533A1, “CDK INHIBITOR COMPOUNDS” (ALEKSIA THERAPEUTICS, INC., priority 2023, published 2026).

target: CDK1/CCNB1 (Homo sapiens, UniProt P06493); experiment: CDK1 homogeneous time-resolved fluorescence (HTRF) kinase assay; type: biochemical; details: CDK1/CCNB; 25-250 nM marked x; read-out: CDK1/CCNB IC50 25-250 nM
Description: (§1) A CDK homogeneous time-resolved fluorescence (HTRF) assay was used to assess the potency of the compounds described herein.
(§2) To an untreated 384-well microtiter plate (ProxiPlate) was added 100 nL 100×test compound in DMSO and 5 μL 2×CDK enzyme in assay buffer (50 mM HEPES, 1 mM EGTA, 10 mM MgCl2, 0.01% Tween 20, 2 mM DTT). The plate was centrifuged at 800 RPM for 1 min then incubated for 20 min at 23 °C. 2.5 μL per well of 4×ATP and 2.5 μL 4×ULight™-eIF4E-binding protein 1 (Thr37/46) Peptide substrate were added to all wells. After addition, the plates were centrifuged at 800 RPM for 1 min. The plates were incubated at 23 °C for 60 min. 5 μL per well 4×EDTA solution were added to each well to stop the reaction. 5 μL 4×LANCE Ultra Europium-anti-phospho-eIF4E-binding protein 1 (Thr37/46) antibody were added to each well and the plate was centrifuged for 1 min at 800 RPM. The plate was incubated for 60 min at 23 °C. Fluorescence was read at 340 nm excitation and 665 nm emission on an En Vision 2105 fluorescence reader. The final concentrations of reagents in the activity assay were 0.5 nM CDK1/CCNB1, 1 mM ATP, 50 nM ULight™-eIF4E-binding protein 1 (Thr37/46) Peptide substrate, 1% DMSO, 10 mM EDTA, and 2 nM LANCE Ultra Europium-anti-phospho-eIF4E-binding protein 1 (Thr37/46).
(§3) Dose-response titrations were conducted by using an 11-point, half-logarithmic serial dilution scheme typically starting at 10 μM. Signals were reported as fluorescence units at 665 nm or the ratio of fluorescence units at 665 nm/fluorescence units at 615 nm. Signals are referred to below as “Lance signals”.
(§4) Using this assay, the IC50 values of example compounds were determined. Table 3 illustrates the IC50 for various Example compounds of Formula IA. Table 4 illustrates the IC50 for various other Example compounds of Formula I. ND=not determined.

CDK1/CCNB1, sequence (P06493 whole entry): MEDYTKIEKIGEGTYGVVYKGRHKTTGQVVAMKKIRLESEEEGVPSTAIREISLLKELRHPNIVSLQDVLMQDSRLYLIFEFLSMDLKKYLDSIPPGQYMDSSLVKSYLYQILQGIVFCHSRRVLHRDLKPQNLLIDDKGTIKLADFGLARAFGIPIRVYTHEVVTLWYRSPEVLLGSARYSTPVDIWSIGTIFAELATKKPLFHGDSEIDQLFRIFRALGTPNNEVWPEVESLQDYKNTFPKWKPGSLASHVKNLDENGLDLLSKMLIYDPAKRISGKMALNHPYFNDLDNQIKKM
CDK1/CCNB1, sequence (P14635 whole entry partner): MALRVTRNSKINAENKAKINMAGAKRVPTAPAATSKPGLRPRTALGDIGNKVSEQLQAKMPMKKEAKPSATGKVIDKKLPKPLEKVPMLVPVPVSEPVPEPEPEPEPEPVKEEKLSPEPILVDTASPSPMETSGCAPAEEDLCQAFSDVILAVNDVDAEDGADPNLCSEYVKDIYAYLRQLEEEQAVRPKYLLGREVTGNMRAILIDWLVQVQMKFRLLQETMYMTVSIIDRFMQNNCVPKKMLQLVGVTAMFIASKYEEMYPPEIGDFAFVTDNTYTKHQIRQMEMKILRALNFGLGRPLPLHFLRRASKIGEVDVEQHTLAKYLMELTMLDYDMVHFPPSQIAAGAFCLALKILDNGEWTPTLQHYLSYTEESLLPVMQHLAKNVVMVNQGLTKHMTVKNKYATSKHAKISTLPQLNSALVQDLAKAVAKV

Row | SMILES | IC50 [nM]
1 | N=S(=O)(c1ccc(Nc2cc3c(C#Cc4ccc5c(c4)NC(=O)C54CC4)nccc3cn2)c(F)c1)C1COC1 (single isomer, unassigned) [Ex 276, 6'-((7-((2-fluoro-4-(oxetane-3-sulfonimidoyl)phenyl)amino)-2,6-naphthyridin-1-yl)ethynyl)spiro[cyclopropane-1,3'-indolin]-2'-one] | 25 to 250

same assay, conditions: CDK1/CCNB; <25 nM; read-out: CDK1/CCNB IC50 <25 nM

Row | SMILES | IC50 [nM]
2 | N=S(=O)(c1ccc(Nc2cc3c(C#Cc4ccc5c(c4)NC(=O)C54CC4)nccc3cn2)cc1)C1CC1 (single isomer, unassigned) [Ex 307, 6'-((7-((4-(cyclopropanesulfonimidoyl)phenyl)amino)-2,6-naphthyridin-1-yl)ethynyl)spiro[cyclopropane-1,3'-indolin]-2'-one] | < 25

target: CDK2/CCNE1 (Homo sapiens, UniProt P24941); experiment: CDK2 homogeneous time-resolved fluorescence (HTRF) kinase assay; type: biochemical; details: <25 nM; CDK2/CCNE; read-out: CDK2/CCNE IC50, <25 nM
Description: as §1
as §2, with “3” for “0.5”, “CDK2/CCNE1,” for “CDK1/CCNB1,”
as §3, §4

Row | SMILES | IC50 [nM]
3 | Cc1c(-c2nccc3cnc(Nc4ccc(S(=N)(=O)NC5CCC5)cc4)cc23)ccc2c1cnn2CC(O)(C(F)(F)F)C(F)(F)F (single isomer, unassigned) [Ex 690, N-cyclobutyl-4-((5-(4-methyl-1-(3,3,3-trifluoro-2-hydroxy-2-(trifluoromethyl)propyl)-1H-indazol-5-yl)-2,6-naphthyridin-3-yl)amino)benzenesulfonimidamide] | < 25
4 | Cc1c(-c2nccc3cnc(Nc4ccc(S(=N)(=O)Nc5ccccc5)cc4)cc23)ccc2c1cnn2CC(O)(C(F)(F)F)C(F)(F)F (single isomer, unassigned) [Ex 693, 4-((5-(4-methyl-1-(3,3,3-trifluoro-2-hydroxy-2-(trifluoromethyl)propyl)-1H-indazol-5-yl)-2,6-naphthyridin-3-yl)amino)-N-phenylbenzenesulfonimidamide] | < 25

same assay, conditions: >250 nM; CDK2/CCNE; read-out: CDK2/CCNE IC50, >250 nM

Row | SMILES | IC50 [nM]
5 | CS(=O)(=O)c1ccc(Nc2cc3c(C#Cc4cccnc4O)nccc3cn2)cc1 [Ex 902, 3-((7-((4-(methylsulfonyl)phenyl)amino)-2,6-naphthyridin-1-yl)ethynyl)pyridin-2-ol] | > 250

same assay, conditions: CDK2/CCNE; 25-250 nM marked x; read-out: CDK2/CCNE IC50 25-250 nM

Row | SMILES | IC50 [nM]
6 | CNC(=O)C1CCCN(c2nccc3cnc(NC4CCN(S(C)(=O)=O)CC4)cc23)C1 (single isomer, unassigned) [Ex 31, N-methyl-1-(7-((1-(methylsulfonyl)piperidin-4-yl)amino)-2,6-naphthyridin-1-yl)piperidine-3-carboxamide] | 25 to 250
7 | CCC1(CC)C(=O)Nc2cc(C#Cc3nccc4cnc(Nc5ccc(S(=N)(=O)C6CCC6)cc5OC)cc34)ccc21 (single isomer, unassigned) [Ex 272, 6-((7-((4-(cyclobutanesulfonimidoyl)-2-methoxyphenyl)amino)-2,6-naphthyridin-1-yl)ethynyl)-3,3-diethylindolin-2-one] | 25 to 250
8 | CCC1(CC)C(=O)Nc2cc(C#Cc3nccc4cnc(Nc5ccc(S(=N)(=O)C6CC(F)(F)C6)cc5F)cc34)ccc21 (single isomer, unassigned) [Ex 302, 6-((7-((4-(3,3-difluorocyclobutane-1-sulfonimidoyl)-2-fluorophenyl)amino)-2,6-naphthyridin-1-yl)ethynyl)-3,3-diethylindolin-2-one] | 25 to 250
9 | CCC1(CC)C(=O)Nc2cc(C#Cc3nccc4cnc(Nc5ccc(S(=N)(=O)C(C)C)cc5OC)cc34)ccc21 (single isomer, unassigned) [Ex 341, 3,3-diethyl-6-((7-((2-methoxy-4-(propan-2-ylsulfonimidoyl)phenyl)amino)-2,6-naphthyridin-1-yl)ethynyl)indolin-2-one] | 25 to 250
10 | CS(=O)(=O)N1CCC(Nc2cc3c(N4CCOCC4)nccc3cn2)CC1 [Ex 30, N-(1-(methylsulfonyl)piperidin-4-yl)-5-morpholino-2,6-naphthyridin-3-amine] | 25 to 250
11 | CC(=O)N1CCN(c2nccc3cnc(NC4CCN(S(C)(=O)=O)CC4)cc23)CC1 [Ex 58, 1-(4-(7-((1-(methylsulfonyl)piperidin-4-yl)amino)-2,6-naphthyridin-1-yl)piperazin-1-yl)ethan-1-one] | 25 to 250
12 | CS(=O)(=O)N1CCC(Nc2cc3c(-c4ccc(C#N)nc4)nccc3cn2)CC1 [Ex 79, 5-(7-((1-(methylsulfonyl)piperidin-4-yl)amino)-2,6-naphthyridin-1-yl)picolinonitrile] | 25 to 250
13 | COC(=O)c1ccc(Nc2cc3c(C4=CCCCC4)nccc3cn2)cc1 [Ex 101, methyl 4-((5-(cyclohex-1-en-1-yl)-2,6-naphthyridin-3-yl)amino)benzoate] | 25 to 250
14 | O=C(Oc1ccc(F)cc1)c1ccc(Nc2cc3c(C4=CCCCC4)nccc3cn2)cc1 [Ex 254, 4-fluorophenyl 4-((5-(cyclohex-1-en-1-yl)-2,6-naphthyridin-3-yl)amino)benzoate] | 25 to 250

same assay, conditions: CDK2/CCNE; <25 nM; read-out: CDK2/CCNE IC50 <25 nM

Row | SMILES | IC50 [nM]
15 | CCC1(CC)C(=O)Nc2cc(C#Cc3nccc4cnc(Nc5ccc(S(C)(=N)=O)cc5C(F)F)cc34)ccc21 (single isomer, unassigned) [Ex 295, 6-((7-((2-(difluoromethyl)-4-(S-methylsulfonimidoyl)phenyl)amino)-2,6-naphthyridin-1-yl)ethynyl)-3,3-diethylindolin-2-one] | < 25
16 | CCC1(CC)C(=O)Nc2cc(C#Cc3nccc4cnc(Nc5ccc(S(=N)(=O)C6CC6)cc5OC)cc34)ccc21 (single isomer, unassigned) [Ex 300, 6-((7-((4-(cyclopropanesulfonimidoyl)-2-methoxyphenyl)amino)-2,6-naphthyridin-1-yl)ethynyl)-3,3-diethylindolin-2-one] | < 25
17 | CCC1(CC)C(=O)Nc2cc(C#Cc3nccc4cnc(Nc5ccc(S(=N)(=O)CC)cc5OC)cc34)ccc21 (single isomer, unassigned) [Ex 309, 3,3-diethyl-6-((7-((4-(ethylsulfonimidoyl)-2-methoxyphenyl)amino)-2,6-naphthyridin-1-yl)ethynyl)indolin-2-one] | < 25
18 | COc1cc(S(C)(=N)=O)ccc1Nc1cc2c(C#Cc3ccc4c(c3)NC(=O)C43CCC3)nccc2cn1 (single isomer, unassigned) [Ex 314, 6'-((7-((2-methoxy-4-(S-methylsulfonimidoyl)phenyl)amino)-2,6-naphthyridin-1-yl)ethynyl)spiro[cyclobutane-1,3'-indolin]-2'-one] | < 25
19 | CCC1(CC)C(=O)Nc2cc(C#Cc3nccc4cnc(Nc5ccc(S(=N)(=O)C6COC6)cc5OC)cc34)ccc21 (single isomer, unassigned) [Ex 318, 3,3-diethyl-6-((7-((2-methoxy-4-(oxetane-3-sulfonimidoyl)phenyl)amino)-2,6-naphthyridin-1-yl)ethynyl)indolin-2-one] | < 25
20 | CCC1(CC)C(=O)Nc2cc(C#Cc3nccc4cnc(Nc5ccc(S(C)(=N)=O)cc5OC)cc34)ccc21 (single isomer, unassigned) [Ex 320, 3,3-diethyl-6-((7-((2-methoxy-4-(S-methylsulfonimidoyl)phenyl)amino)-2,6-naphthyridin-1-yl)ethynyl)indolin-2-one] | < 25

same assay, conditions: CDK2/CCNE; x = IC50 <25 nM; read-out: CDK2/CCNE IC50 (<25 nM)

Row | SMILES | IC50 [nM]
21 | CCS(=N)(=O)c1ccc(Nc2cc3c(C#Cc4ccc5c(c4)NC(=O)C54CC4)nccc3cn2)cc1 (racemic) [Ex 377, 6'-((7-((4-(ethylsulfonimidoyl)phenyl)amino)-2,6-naphthyridin-1-yl)ethynyl)spiro[cyclopropane-1,3'-indolin]-2'-one] | < 25
